From publication PMC11397566, “Cytotoxic Natural Products from the Jurassic Relict Osmunda regalis L” (Molecules, 2024)

Tests used:
Assay type in all cases: cell-based
[1] = tested on: MOLM13 cells; test: Cytotoxicity (WST-1 metabolic activity) towards AML cell line MOLM13; settings: for cytotoxic activity against the MOLM13 cells (in words): compared with a DMSO control, 72 hours of incubation; for EC50: Homo sapiens, MOLM-13, metabolic activity (WST-1) after 72 h of incubation, compounds diluted in DMSO, three independent experiments
Description: (§1) The pure compounds were diluted to create stock solutions with a final concentration of 20 mM in DMSO (Dimethyl Sulfoxide—for molecular biology, Sigma-Aldrich, Saint Louise, MO, USA). Normal rat kidney epithelial cells (NRK, ATCC no.: CRL-6509) and rat cardiomyoblasts (H9c2, ATCC no.: CRL-1446) were grown in DMEM medium enriched with 10% foetal bovine serum (FBS, Invitrogen, Carlsbad, CA, USA). Once the cells achieved 80% confluence, they were gently detached using trypsin treatment (0.33 mg/mL trypsin for 5 min at 37 °C), centrifuged (160× g, 4 min), and then reseeded in fresh medium to reach 25% confluence.
The AML cell line MOLM13 (DSMZ no.: ACC554, [39]) was maintained in RPMI-1640 medium supplemented with 10% FBS and 8 mM L-glutamine (Sigma Life Science, Dorset, UK). The cells were kept in suspension cultures with a density of 150,000 to 700,000 cells/mL.
(§2) All media were further supplemented with 1 IU/mL penicillin and 1 mg/mL streptomycin (both from Cambrex, Liège, Belgium) and incubated in a humidified environment (37 °C, 5% CO2). For the cytotoxicity experiments with compounds 11 to 15, the NRK and H9c2 cells were seeded in 96-well tissue culture plates (4000 cells/well, 0.1 mL) and left overnight to attach before treatments. The MOLM13 cells were seeded in 96-well tissue culture plates at 20,000 cells/well in 0.1 mL on the day of the experiment.
(§3) Compounds dissolved in DMSO were added to the cells, and the plates were incubated for 72 hours before adding the tetrazolium salt WST-1 according to the manufacturer’s instructions (Roche Diagnostics GmbH, Mannheim, Germany). The plates were further incubated for two hours before the signal was recorded at 450 nm with reference at 620 nm. For black subtraction, medium and plant compounds were added to WST-1. This procedure was performed after 24 and 72 h.
(§4) After recording WST-1, the cells were next fixed with 2% buffered formaldehyde (pH 7.4) with 0.01 mg/mL of the DNA-specific fluorescent dye, […]. As previously described, the presence of dead (apoptotic or necrotic) cells was verified by differential interference contrast and fluorescence microscopy.
(§5) EC50 values were determined by a four-parameter regression analysis as described by Viktorsson et al., using SigmaPlot ver. 14.0 (Systat Software Inc., San Jose, CA, USA).

[2] = tested on: H9c2 cells; test: Cytotoxicity (WST-1 metabolic activity) towards rat cardiomyoblasts H9c2; settings: metabolic activity (WST-1) after 72 h of incubation, compounds diluted in DMSO, three independent experiments
Description: as §1, with “confluence. […]” for “confluence.”
Compounds dissolved in DMSO were added to the cells, and the plates were incubated for 72 hours before adding the tetrazolium salt WST-1 according to the manufacturer’s instructions (Roche Diagnostics GmbH, Mannheim, Germany). The plates were further incubated for two hours before the signal was recorded at 450 nm with reference at 620 nm. […]
as §4
EC50 values were determined by a four-parameter regression analysis as described by Viktorsson et al., using SigmaPlot ver. […]

[3] = tested on: NRK cells; test: Cytotoxicity (WST-1 metabolic activity) towards normal rat kidney epithelial cells NRK; settings: for EC50: Rattus norvegicus, NRK, metabolic activity (WST-1) after 72 h of incubation, compounds diluted in DMSO, three experiments, "-" = no data available due to low or no toxicity
Description: as §1, §2, §3, §4, §5

Question: How did the “cytotoxic activity against the MOLM13 cells (in words)” value (shortened to “cytotoxic activity”) [1] turn out when `CC(O)C1OC(=O)C(C2CC(=O)OC(C)C2O)C1O` [Compound 13, (4R,5S,3’S,1’’S,4’R)-4-hydroxy-3-(3’-hydroxy-4’-(1-hydroxyethyl)-oxotetrahydrofuran-5-methyltetrahydropyranone] was run?
Answer: Its value is “Only compounds 11 and 15, which are γ- and δ-lactones, respectively, exhibited significant cytotoxic activity”.

Question: Which “cytotoxic activity” value [1] does the source give for `CC1OC(OC2C(OC3C(Oc4c(-c5ccc(O)cc5)oc5cc(O)cc(O)c5c4=O)OC(CO)C(O)C3O)OC(COC(=O)C=Cc3ccc(O)c(O)c3)C(O)C2O)C(O)C(O)C1O` (stereo not drawn) [Compound 6, kaempferol 3-O-(2’’-O-(2’’’-O-α-rhamnopyranosyl-6’’’-O-(E)-caffeoyl-)-β-glucopyranosyl)-β-glucopyranoside] here?
Answer: The value was “Only compounds 11 and 15, which are γ- and δ-lactones, respectively, exhibited significant cytotoxic activity”.

Question: `CO[C@H]1CC(=O)O[C@@H]1C(C)O` (some centres unmarked) [Compound 12, 3-methoxy-5-hydroxy-4-olide] was tested. Which “cytotoxic activity” value [1] did it give?
Answer: The value was “Only compounds 11 and 15, which are γ- and δ-lactones, respectively, exhibited significant cytotoxic activity”.

Question: `COc1cc(C2OC2CO)ccc1O` (centres unmarked) [Compound 10, epoxyconiferyl alcohol] was tested. Which “cytotoxic activity” value [1] did it give?
Answer: Its value is “Only compounds 11 and 15, which are γ- and δ-lactones, respectively, exhibited significant cytotoxic activity”.

Question: `CC(O)C(=O)CCC(=O)OC1C=CC(=O)OC1C` (centres unmarked) [Compound 15, 4-O-(5-hydroxy-4-oxohexanoyl) osmundalactone] was tested. Which EC50 [1] did it give?
Answer: Its EC50 is 111.9 ± 0.07 µM.

Question: And the “cytotoxic activity” value [1]?
Answer: The value was “significant cytotoxic activity”.

Question: And the EC50 [2]?
Answer: The EC50 was 102.7 ± 0.12 µM.

Question: And the “reduced metabolic activity in the NRK cells at the highest concentration tested” value ([3]; 200 μM, 72 h)?
Answer: Its value is “did not detect reduced metabolic activity”.

Question: And the EC50 [3]?
Answer: The EC50 was greater than 200 µM.

Question: How did the “cytotoxic activity” value [1] turn out when `CC1OC(OC2C(OC3C(Oc4c(-c5ccc(O)cc5)oc5cc(O)cc(O)c5c4=O)OC(CO)C(O)C3O)OC(CO)C(O)C2O)C(O)C(O)C1O` (stereo not drawn) [Compound 2, kaempferol 3-O-(2’’-O-(2’’’-α-rhamnopyranosyl)-β-glucopyranosyl)-β-glucopyranoside] was run?
Answer: The value was “Only compounds 11 and 15, which are γ- and δ-lactones, respectively, exhibited significant cytotoxic activity”.

Question: Which results are given for `CC(O)C1C=CC(=O)O1` (centres unmarked) [Compound 11, 5-hydroxy-2-hexen-4-olide]?
Answer: EC50 [1]: 46.2 ± 0.07 µM; cytotoxic activity against the MOLM13 cells (in words) [1]: significant cytotoxic activity; EC50 [2]: 48.7 ± 0.18 µM; EC50 [3]: 49.6 ± 0.11 µM

Question: Which “cytotoxic activity” value [1] does the source give for `CC1OC(OC2C(OC3C(Oc4c(-c5ccc(O)c(O)c5)oc5cc(O)cc(O)c5c4=O)OC(CO)C(O)C3O)OC(CO)C(O)C2O)C(O)C(O)C1O` (stereo not drawn) [Compound 3, quercetin 3-O-(2’’-O-(2’’’-α-rhamnopyranosyl)-β-glucopyranosyl)-β-glucopyranoside] here?
Answer: The value was “Only compounds 11 and 15, which are γ- and δ-lactones, respectively, exhibited significant cytotoxic activity”.

Question: How did the “cytotoxic activity” value [1] turn out when `COc1cc(C2Oc3c(OC)cc(CCCO)cc3[C@H]2CO)ccc1O[C@@H]1O[C@@H](C)[C@H](O)[C@@H](O)[C@H]1O` (stereo partly drawn) [Compound 8, (7R,8S)-dihydrodehydrodiconiferyl alcohol 4-O-α-rhamnopyranoside] was run?
Answer: The value was “Only compounds 11 and 15, which are γ- and δ-lactones, respectively, exhibited significant cytotoxic activity”.

Question: `CC1=CC(=O)CC(C)(C)C1CCC(C)O[C@@H]1O[C@H](CO)[C@@H](O)[C@H](O)[C@H]1O` (stereo partly drawn) [Compound 14, blumenol C 9-O-β-glucopyranoside] was tested. Which “cytotoxic activity” value [1] did it give?
Answer: The value was “Only compounds 11 and 15, which are γ- and δ-lactones, respectively, exhibited significant cytotoxic activity”.
